Data published in ChEMBL document CHEMBL1148047, “Two steroidal alkaloids from a sponge, Corticium sp” (J Nat Prod, 1994).
Converted amounts (≈) assume the structure as drawn.

Experiments:
[1] = tested on: P388; assay: Cytotoxicity against mouse P388 cells; format: functional, cell-based
[2] = tested on: A549; assay: Cytotoxicity against human A549 cells; format: functional, cell-based
[3] = tested on: HT-29; assay: Cytotoxicity against human HT-29 cells; format: functional, cell-based
[4] = tested on: SK-MEL-28; assay: Cytotoxicity against human SK-MEL-28 cells; format: functional, cell-based
[5] = tested on: Lymphocyte; assay: Immunomodulatory activity against lymphocytes by mixed lymphocyte reaction method; format: functional
[6] = tested on: Bacillus subtilis; assay: Antimicrobial activity against Bacillus subtilis at 50 ug/disk; format: functional; details: read-out: IZ
[7] = tested on: Candida albicans; assay: Antimicrobial activity against Candida albicans at 50 ug/disk; format: functional; details: read-out: IZ
[8] = tested on: Lymphocyte; assay: Immunomodulatory activity against lymphocytes by lymphocyte viability assay; format: functional
[9] = tested on: Lymphocyte; assay: Ratio of immunomodulatory activity against lymphocytes by lymphocyte viability assay to immunomodulatory activity against lymphocytes by mixed lymphocyte reaction method; format: functional

Row | Compound | IC50 [1] | IC50 [2] | IC50 [3] | IC50 [4] | Activity [5] | zone of inhibition at 50 µg/disc [6] | zone of inhibition at 50 µg/disc [7] | Activity [8] | Ratio IC50 [9]
1 | CC(C)=C1CCN=C1C[C@@H](C)[C@H]1CC[C@H]2C3=CC[C@H]4[C@@H](O)[C@@H](N(C)C)CC[C@]4(C)[C@H]3CC[C@]12C [LOKYSTEROLAMINE A] | 0.5 µg/mL (≈ 1.07 µM) | 0.5 µg/mL (≈ 1.07 µM) | 1 µg/mL (≈ 2.14 µM) | 5 µg/mL (≈ 10.7 µM) | 0.13 | 19 mm | 11 mm | >25 | >187
2 | CC(=O)N[C@H]1CC[C@]2(C)[C@H]3CC[C@]4(C)[C@@H]([C@H](C)CC5=NCCC5=C(C)C)CC[C@H]4C3=CC[C@H]2[C@H]1O [LOKYSTEROLAMINE B] | 1 µg/mL (≈ 2.08 µM) | 0.5 µg/mL (≈ 1.04 µM) | 1 µg/mL (≈ 2.08 µM) | > 2 µg/mL | 0.48 | 8 mm | 0 mm | >12.5 | 
